Results: PMC12281424, “A Rac-specific competitive inhibitor of guanine nucleotide binding reduces metastasis in triple-negative breast cancer” (Cell Reports Medicine, 2025)

Tests used:
Hck(h) activated = Hck(h) activated (Homo sapiens, UniProt P08631); assay: Kinase Profiler; type: biochemical
Protocol: (§1) The kinase profiler was performed by the company Eurofins (Discovery, Panlab and Cerep).

JAK2(h) = JAK2(h) (Homo sapiens, UniProt O60674); assay: Kinase Profiler; type: biochemical
Protocol: as §1

PKBγ(h) = PKBγ(h) (Homo sapiens, UniProt Q9Y243); assay: Kinase Profiler; type: biochemical
Protocol: as §1

MuSK(h) = MuSK(h) (Homo sapiens, UniProt O15146); assay: Kinase Profiler; type: biochemical
Protocol: as §1

RAC1 G30S = molecular target: T1, RAC1 G30S (Homo sapiens, UniProt P63000, G30S); assay: GEF-stimulated nucleotide exchange; type: biochemical; parameters: dose or concentration left out as unconfirmed
T1 construct: Full-length RAC1G30S was obtained by directed mutagenesis on the pET-3a-RAC1HisCter plasmid; 6xHis (C); made in house
Source text: Figure 4 A41 selectively impairs RAC protein activation (A) Representative surface plasmon resonance (SPR) sensograms of binding of immobilized RHOA or CDC42 with indicated increasing concentrations of A41 (N > 3). (B) Effect of A41 on GEF-stimulated RAC2, RHOG, RHOA, and CDC42 nucleotide exchange. […] Kobs is expressed as mean ± SEM. ∗p < 0.001 vs. control. (C) Effect of A41 on RAC1 G30S activation. […] Data are expressed as mean ± SEM. (D) Immunoblot analysis and associated quantification of RAC-GTP level and total RAC expression in NIH-3T3 fibroblasts expressing RAC wild-type (RAC1 WT) or RAC1 oncomutants (RAC1 P29S and RAC1b) in the absence (Ctrl) and presence of A41 (10 μM). RAC activation was measured as the ratio of RAC-GTP to total RAC and expressed relative to Ctrl condition. Data are presented as mean ± SEM. ∗∗∗p < 0.001 vs. controls.
Full-length RAC1 carrying a 6xHis tag in C-terminus was purified as previously described.[64] […] Specific exchange activity toward RHOA determined by fluorescence kinetics is 0.04 s^−1M^−1.
Nucleotide exchange kinetics were measured by recording the increase in fluorescence following the association of mant-GTP on GDP-bound RHO protein or the decay in fluorescence following the dissociation of mant-GDP pre-loaded onto the RHO protein (λEx = 360 nm, λEm = 440 nm) as previously described.[39] […]

Muscarinic M2 = Muscarinic M2 (Homo sapiens, UniProt P08172); assay: Safety screen; type: binding
Protocol: (§2) Blood cell counts, kinase profiler, safety screen, bacterial cytotoxicity, Ames, micronucleus assays were performed by the company Eurofins (France).

LIMK1(h) = LIMK1(h) (Homo sapiens, UniProt P53667); assay: Kinase Profiler; type: biochemical
Chain of LIMK1(h) (P53667 whole entry): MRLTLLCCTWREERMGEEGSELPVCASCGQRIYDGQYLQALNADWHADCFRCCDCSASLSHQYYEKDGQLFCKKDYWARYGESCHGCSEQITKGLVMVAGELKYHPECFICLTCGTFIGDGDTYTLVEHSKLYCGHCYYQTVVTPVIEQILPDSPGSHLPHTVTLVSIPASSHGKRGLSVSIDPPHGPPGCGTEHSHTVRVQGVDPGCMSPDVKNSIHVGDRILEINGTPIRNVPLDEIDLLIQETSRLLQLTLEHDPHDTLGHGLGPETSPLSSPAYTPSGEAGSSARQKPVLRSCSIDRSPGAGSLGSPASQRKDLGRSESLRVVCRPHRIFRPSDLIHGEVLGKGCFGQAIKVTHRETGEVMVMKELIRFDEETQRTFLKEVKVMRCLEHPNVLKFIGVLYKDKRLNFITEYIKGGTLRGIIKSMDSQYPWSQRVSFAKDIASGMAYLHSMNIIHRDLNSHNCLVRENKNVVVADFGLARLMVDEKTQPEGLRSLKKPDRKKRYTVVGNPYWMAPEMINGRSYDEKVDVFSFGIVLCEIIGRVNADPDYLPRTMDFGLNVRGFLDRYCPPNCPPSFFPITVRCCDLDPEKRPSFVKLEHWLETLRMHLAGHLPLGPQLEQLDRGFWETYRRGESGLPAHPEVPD
Protocol: as §1

DNA-PK(h) = DNA-PK(h) (Homo sapiens, UniProt P78527); assay: Kinase Profiler; type: biochemical
Protocol: as §1

CDK6/cyclinD3(h) = CDK6/cyclinD3(h) (Homo sapiens, UniProt Q00534); assay: Kinase Profiler; type: biochemical
Protocol: (§3) Blood cell counts, kinase profiler, safety screen, bacterial cytotoxicity, Ames, micronucleus assays were performed by the company Eurofins (France). The kinase profiler was performed by the company Eurofins (Discovery, Panlab and Cerep).

SLK(h) = SLK(h) (Homo sapiens, UniProt Q9H2G2); assay: Kinase Profiler; type: biochemical
Protocol: as §1

BRK(h) = BRK(h) (Homo sapiens, UniProt Q13882); assay: Kinase Profiler; type: biochemical
Chain of BRK(h) (Q13882 whole entry): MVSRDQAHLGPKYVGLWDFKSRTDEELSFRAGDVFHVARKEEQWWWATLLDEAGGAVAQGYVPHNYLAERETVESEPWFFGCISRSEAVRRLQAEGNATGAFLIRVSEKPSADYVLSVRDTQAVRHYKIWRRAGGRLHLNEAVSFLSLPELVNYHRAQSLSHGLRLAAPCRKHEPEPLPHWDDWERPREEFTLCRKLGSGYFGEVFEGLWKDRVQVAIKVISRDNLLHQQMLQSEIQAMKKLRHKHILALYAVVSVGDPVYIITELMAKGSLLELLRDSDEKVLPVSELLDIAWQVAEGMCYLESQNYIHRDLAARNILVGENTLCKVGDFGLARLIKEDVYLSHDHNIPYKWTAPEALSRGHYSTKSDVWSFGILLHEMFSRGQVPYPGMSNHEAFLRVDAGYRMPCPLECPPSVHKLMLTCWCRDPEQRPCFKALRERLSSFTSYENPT
Protocol: as §3

Adrenergic α1A = Adrenergic α1A (Rattus norvegicus, UniProt P43140); assay: Safety screen; type: binding
Protocol: as §2

[1] = molecular target: Cholinesterase, Acetyl, ACES (Homo sapiens, UniProt P22303)
Protocol: as §3

Dopamine D2S = Dopamine D2S (Homo sapiens, UniProt P14416); assay: Safety screen; type: binding
Chain of Dopamine D2S (P14416 1-414 isoform P14416-2): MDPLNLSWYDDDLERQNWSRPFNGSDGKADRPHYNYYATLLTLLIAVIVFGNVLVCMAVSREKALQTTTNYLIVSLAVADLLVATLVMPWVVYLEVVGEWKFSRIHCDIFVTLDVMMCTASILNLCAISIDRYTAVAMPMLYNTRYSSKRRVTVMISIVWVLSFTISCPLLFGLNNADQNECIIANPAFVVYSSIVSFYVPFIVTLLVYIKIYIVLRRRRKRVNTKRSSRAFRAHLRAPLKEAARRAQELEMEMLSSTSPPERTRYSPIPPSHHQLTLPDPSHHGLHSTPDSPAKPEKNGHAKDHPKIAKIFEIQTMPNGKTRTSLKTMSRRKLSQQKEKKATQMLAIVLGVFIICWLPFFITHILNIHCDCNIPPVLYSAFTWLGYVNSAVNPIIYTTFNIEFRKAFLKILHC
Protocol: as §2

ATM(h) = ATM(h) (Homo sapiens, UniProt Q13315); assay: Kinase Profiler; type: biochemical
Chain of ATM(h) (Q13315 whole entry): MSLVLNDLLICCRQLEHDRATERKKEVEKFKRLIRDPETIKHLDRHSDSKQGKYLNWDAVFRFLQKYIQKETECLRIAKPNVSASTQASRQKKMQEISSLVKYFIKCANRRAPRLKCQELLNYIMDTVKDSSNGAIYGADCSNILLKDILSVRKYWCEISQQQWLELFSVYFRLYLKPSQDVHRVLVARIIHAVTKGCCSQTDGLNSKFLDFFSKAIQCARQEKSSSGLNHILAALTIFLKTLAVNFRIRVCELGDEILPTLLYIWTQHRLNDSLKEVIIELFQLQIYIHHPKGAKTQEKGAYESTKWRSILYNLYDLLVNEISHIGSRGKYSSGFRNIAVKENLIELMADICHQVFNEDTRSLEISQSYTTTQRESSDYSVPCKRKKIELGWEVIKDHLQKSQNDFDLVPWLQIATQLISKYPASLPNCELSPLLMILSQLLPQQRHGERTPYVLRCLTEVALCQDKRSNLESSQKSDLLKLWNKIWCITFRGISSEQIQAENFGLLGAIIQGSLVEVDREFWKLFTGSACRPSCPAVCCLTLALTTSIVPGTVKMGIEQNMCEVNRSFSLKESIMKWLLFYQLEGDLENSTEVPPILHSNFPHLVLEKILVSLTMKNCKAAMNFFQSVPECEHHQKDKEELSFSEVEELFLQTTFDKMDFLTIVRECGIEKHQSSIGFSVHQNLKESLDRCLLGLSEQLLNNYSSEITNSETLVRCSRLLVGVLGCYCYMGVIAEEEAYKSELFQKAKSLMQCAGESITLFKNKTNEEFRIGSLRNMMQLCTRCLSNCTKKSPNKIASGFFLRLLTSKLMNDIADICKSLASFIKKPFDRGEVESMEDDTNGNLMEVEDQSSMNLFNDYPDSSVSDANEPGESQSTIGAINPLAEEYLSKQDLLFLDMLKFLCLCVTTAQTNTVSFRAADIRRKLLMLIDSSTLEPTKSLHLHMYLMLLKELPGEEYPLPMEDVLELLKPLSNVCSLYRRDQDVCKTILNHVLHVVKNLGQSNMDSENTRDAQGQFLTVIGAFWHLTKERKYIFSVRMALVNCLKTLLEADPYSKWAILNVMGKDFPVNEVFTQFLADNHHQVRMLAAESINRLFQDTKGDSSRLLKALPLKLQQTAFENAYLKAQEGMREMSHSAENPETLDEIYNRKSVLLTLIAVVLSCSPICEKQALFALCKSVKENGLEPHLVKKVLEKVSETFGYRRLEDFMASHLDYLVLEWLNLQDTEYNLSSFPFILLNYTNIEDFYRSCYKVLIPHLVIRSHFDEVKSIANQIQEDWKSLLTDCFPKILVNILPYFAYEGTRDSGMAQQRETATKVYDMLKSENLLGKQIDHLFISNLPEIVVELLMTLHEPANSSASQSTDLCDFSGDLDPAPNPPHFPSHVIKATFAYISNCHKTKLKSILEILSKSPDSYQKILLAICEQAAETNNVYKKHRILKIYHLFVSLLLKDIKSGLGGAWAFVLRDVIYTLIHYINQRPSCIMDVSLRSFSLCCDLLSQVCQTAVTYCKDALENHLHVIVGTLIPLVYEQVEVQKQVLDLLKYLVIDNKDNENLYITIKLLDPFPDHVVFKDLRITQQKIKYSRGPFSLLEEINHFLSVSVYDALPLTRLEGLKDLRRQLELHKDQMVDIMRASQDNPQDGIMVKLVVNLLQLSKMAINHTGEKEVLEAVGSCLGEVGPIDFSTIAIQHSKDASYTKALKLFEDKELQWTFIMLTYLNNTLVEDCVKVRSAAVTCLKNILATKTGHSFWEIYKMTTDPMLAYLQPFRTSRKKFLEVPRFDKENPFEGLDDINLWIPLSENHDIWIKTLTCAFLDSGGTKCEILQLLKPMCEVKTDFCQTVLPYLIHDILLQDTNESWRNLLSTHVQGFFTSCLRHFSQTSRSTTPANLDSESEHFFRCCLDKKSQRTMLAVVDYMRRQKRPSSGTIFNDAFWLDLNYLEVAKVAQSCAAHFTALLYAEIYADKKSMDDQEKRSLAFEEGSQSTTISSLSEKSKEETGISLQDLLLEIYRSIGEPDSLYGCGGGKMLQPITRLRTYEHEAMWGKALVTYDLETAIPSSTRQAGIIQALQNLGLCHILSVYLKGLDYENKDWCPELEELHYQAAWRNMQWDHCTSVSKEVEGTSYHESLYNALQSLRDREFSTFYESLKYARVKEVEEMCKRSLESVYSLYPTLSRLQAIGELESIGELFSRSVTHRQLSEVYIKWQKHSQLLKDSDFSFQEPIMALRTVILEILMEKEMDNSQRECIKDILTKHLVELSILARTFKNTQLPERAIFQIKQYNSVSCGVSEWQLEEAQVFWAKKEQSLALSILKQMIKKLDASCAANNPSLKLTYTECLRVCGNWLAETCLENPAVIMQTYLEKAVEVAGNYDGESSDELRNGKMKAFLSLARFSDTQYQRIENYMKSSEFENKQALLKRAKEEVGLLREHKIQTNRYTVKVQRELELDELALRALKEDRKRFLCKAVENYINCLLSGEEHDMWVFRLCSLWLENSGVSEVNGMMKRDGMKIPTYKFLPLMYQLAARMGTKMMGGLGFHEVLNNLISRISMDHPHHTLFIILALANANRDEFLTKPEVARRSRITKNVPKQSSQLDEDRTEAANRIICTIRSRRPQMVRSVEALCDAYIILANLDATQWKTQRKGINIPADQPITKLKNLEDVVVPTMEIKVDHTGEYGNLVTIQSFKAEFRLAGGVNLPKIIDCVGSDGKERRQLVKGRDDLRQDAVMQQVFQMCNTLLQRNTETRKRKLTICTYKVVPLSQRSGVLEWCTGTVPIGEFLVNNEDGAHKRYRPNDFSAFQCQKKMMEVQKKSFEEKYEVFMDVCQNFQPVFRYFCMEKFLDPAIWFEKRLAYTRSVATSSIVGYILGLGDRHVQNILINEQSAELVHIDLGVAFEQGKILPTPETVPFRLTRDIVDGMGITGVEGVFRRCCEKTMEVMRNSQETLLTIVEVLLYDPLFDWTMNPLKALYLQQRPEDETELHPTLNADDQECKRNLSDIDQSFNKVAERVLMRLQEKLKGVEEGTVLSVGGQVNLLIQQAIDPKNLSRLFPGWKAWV
Protocol: as §1

SAPK2b(h) = SAPK2b(h) (Homo sapiens, UniProt Q15759); assay: Kinase Profiler; type: biochemical
Protocol: as §1

PKCβII(h) = PKCβII(h) (Homo sapiens, UniProt P05771); assay: Kinase Profiler; type: biochemical
Protocol: as §1

Chain of PKBγ(h) (Q9Y243 whole entry): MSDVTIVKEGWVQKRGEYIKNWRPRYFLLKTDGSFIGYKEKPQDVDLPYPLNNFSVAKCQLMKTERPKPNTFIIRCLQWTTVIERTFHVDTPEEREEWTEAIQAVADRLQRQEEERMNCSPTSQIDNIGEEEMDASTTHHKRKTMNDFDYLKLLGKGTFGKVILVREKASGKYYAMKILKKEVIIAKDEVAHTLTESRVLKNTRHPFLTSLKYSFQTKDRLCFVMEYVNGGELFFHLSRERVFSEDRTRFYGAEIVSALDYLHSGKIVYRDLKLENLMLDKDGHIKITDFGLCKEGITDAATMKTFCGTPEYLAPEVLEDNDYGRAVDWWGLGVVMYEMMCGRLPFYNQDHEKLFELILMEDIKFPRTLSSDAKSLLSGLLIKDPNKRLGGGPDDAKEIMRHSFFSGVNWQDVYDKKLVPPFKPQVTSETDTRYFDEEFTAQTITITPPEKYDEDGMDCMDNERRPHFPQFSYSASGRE

**Q.** What does the source list for `COc1ccc(OC)c(NS(=O)(=O)c2ccc(NC(=O)CCSc3ccc(C)cc3)cc2)c1` [Compound A41]?
**A.** Activity(%) (Hck(h) activated): 102%; Activity(%) (JAK2(h)): 114%; Activity(%) (PKBγ(h)): 98%; Activity(%) (MuSK(h)): 112%; TRIO-induced nucleotide exchange on RAC1 G30S (RAC1 G30S): not able to inhibit; % inh. (Muscarinic M2): 12%; Activity(%) (LIMK1(h)): 113%; Activity(%) (DNA-PK(h)): 122%; Activity(%) (CDK6/cyclinD3(h)): 111%; Activity(%) (SLK(h)): 127%; Activity(%) (BRK(h)): 107%; % inh. (Adrenergic α1A): 34%; % inh. [1]: 64%; % inh. (Dopamine D2S): 35%; Activity(%) (ATM(h)): 114%; Activity(%) (SAPK2b(h)): 107%; Activity(%) (PKCβII(h)): 97%
